According to US20170037028A1 (BAYER PHARMA AKTIENGESELLSCHAFT, priority 2013, published 2017):

Columns and labels:
Format in all cases: cell-based
GLUT2 = target: T1, GLUT2 (Homo sapiens, UniProt P11168); experiment: Indirect measurement of GLUT2 activity by quantification of intracellular ATP levels (fructose induced ATP increase); details: 10 mM fructose, 1 μM Rotenone, 15 min; CellTiter-Glo ATP readout; read-out: IC50 regarding fructose induced ATP increase (GLUT2 inhibition)
T1 construct: host or cells: DLD1 or CHO-K1
T1 sequence (P11168 1-524): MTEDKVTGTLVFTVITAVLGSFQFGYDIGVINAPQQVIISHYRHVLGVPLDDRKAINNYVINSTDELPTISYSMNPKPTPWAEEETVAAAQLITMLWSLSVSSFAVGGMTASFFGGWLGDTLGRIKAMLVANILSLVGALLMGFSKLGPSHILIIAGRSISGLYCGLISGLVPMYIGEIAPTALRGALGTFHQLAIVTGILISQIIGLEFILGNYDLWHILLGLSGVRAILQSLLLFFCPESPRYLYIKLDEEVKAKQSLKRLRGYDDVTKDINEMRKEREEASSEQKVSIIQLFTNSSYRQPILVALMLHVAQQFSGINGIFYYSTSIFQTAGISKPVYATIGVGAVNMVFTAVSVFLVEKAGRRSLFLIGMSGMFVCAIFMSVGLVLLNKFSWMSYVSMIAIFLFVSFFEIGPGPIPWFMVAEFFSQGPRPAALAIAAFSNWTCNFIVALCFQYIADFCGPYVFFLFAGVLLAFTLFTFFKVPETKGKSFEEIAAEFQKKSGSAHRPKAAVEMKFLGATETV
Source text: Indirect Measurement of GLUT1 and GLUT2 Activity by Quantification of Intracellular ATP Levels
It is well known that a combination of small-molecule inhibitors of mitochondrial electron transport chain and glucose catabolism synergistically suppress ATP production and impair cellular viability (Ulanovskaya et al., 2008, 2011; Liu, et al. 2001). We therefore used DLD1 or CHO-K1 cells in combination with an oxidative phosphorylation inhibitor to identify GLUT1 and GLUT2 inhibitors. Cell lines were maintained in DMEM medium supplemented with 10% FCS and 1% Penicillin-Streptomycin solution and 2% Glutamax. The cells were treated with trypsin and seeded into 384 plates at a density of 4000 cells/well. The cells were then cultured overnight in glucose free media containing 1% FCS to reduce intracellular ATP levels. […] The CellTiter-Glo® Luminescent Cell Viability Assay from Promega was then used to measure ATP Levels.

GLUT1 [1] = target: T2, GLUT1 (Homo sapiens, UniProt P11166); experiment: Indirect measurement of GLUT1 activity by quantification of intracellular ATP levels (glucose induced ATP increase); parameters: endogenous in cells; host or cells: DLD1 or CHO-K1; details: read-out: IC50 regarding glucose induced ATP increase (GLUT1 inhibition)
T2 sequence (P11166 1-492): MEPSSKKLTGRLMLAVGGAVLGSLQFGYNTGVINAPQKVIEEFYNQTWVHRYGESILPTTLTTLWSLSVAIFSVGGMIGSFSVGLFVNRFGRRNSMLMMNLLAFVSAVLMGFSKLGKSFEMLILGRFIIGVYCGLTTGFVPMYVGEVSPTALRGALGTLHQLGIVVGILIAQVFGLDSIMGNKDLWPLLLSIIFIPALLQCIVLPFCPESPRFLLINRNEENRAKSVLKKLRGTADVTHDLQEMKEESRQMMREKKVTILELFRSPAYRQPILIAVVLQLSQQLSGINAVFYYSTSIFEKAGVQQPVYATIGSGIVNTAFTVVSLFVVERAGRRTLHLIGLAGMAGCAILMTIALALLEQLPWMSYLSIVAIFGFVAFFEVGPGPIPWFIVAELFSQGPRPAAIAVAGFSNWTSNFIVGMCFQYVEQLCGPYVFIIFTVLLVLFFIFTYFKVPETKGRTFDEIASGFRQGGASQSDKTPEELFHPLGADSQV
In short: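 Intracellular ATP was measured by CellTiter-Glo luminescence as an indirect readout of transport: glucose-driven for GLUT1, fructose-driven for GLUT2. DLD1 or CHO-K1 cells were used alongside an oxidative phosphorylation inhibitor. Beforehand, cells were held overnight in glucose-free 1% FCS medium to deplete ATP.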

GLUT1 [2] = target: T2, GLUT1; experiment: 2-deoxy-D-glucose (3H) uptake assay, GLUT1 inhibition in cell lines; details: H460 cell line; 3H-2-deoxy-D-glucose uptake; read-out: IC50 regarding GLUT1 inhibition
Experimental: Cells (e.g. H460 or CHO-K1) were cultured under standard conditions. 10000 cells per well were seeded in clear 96 well tissue culture isoplate plates and cultured overnight (PerkinElmer, 1450-516) under standard conditions. Culture medium was removed and cells were washed two times with 100 μL KRP buffer and then incubated for 45 minutes at 37° C. (KRP buffer: 10 mM sodium hydrogen phosphate, 130 mM sodium chloride, 5 mM potassium chloride, 1.3 mM magnesium sulfate, 1.3 mM calcium chloride (pH 7.5), 50 mM HEPES (pH 7.5), 4.7 mM potassium chloride, 1.25 mM magnesium sulfate, 1.25 mM calcium chloride) each. KRP wash buffer was removed and compound 126 (diluted in KRP buffer) was added and incubated for 30 minutes at 37° C. 200 nM radioligand (radioligand 2[1,2] 3H-Deoxy D-Glucose in KRP buffer) were added and incubated for 5 minutes at room temperature. The supernatant was removed and cells were washed with 100 μL ice-cold KRP for two times each. 25 μL of Lysis buffer (1% Triton-X, 0.5N sodium hydroxide) were added and incubated at room temperature for 5 minutes. 75 μL scintillation solution (Microscint-20, PerkinElmer) were added and the plates were shaken for 1 minute. The plates were incubated for 3 h at room temperature and the counts were determined by using a Wallace MicroBeta counter (60 seconds per well).

Structure (SMILES) | IC50 (GLUT2) [nM] | IC50 (GLUT1 [1]) [nM] | IC50 (GLUT1 [2]) [nM]
COc1cc(C(=O)Nc2c(C)nn(Cc3ccc(C#N)cc3)c2C)c2ccccc2n1 [Example 15, N-[1-(4-cyanobenzyl)-3,5-dimethyl-1H-pyrazol-4-yl]-2-methoxyquinoline-4-carboxamide] | 85400 | 11.6 | –
Cc1c(NC(=O)c2cc(C(N)=O)nc3ccccc23)c(C(F)(F)F)nn1Cc1ccc(C#N)cc1 [Example 126, N^4-[1-(4-cyanobenzyl)-5-methyl-3-(trifluoromethyl)-1H-pyrazol-4-yl]quinoline-2,4-dicarboxamide] | 85400 | 4.7 | 15.4
Cc1nn(Cc2ccc(C#N)cn2)c(C)c1NC(=O)c1cc(C(N)=O)nc2cccc(F)c12 [Example 352, N^4-{1-[(5-cyanopyridin-2-yl)methyl]-3,5-dimethyl-1H-pyrazol-4-yl}-5-fluoroquinoline-2,4-dicarboxamide] | 45100 | 2.5 | –
Cc1nn(Cc2ccc(CN(C)C)cc2)c(C)c1NC(=O)c1cc(C(N)=O)nc2cc(F)ccc12 [Example 388, N^4-(1-{4-[(dimethylamino)methyl]benzyl}-3,5-dimethyl-1H-pyrazol-4-yl)-7-fluoroquinoline-2,4-dicarboxamide] | 51200 | 108 | –
CCS(=O)(=O)N1CCC(Cn2nc(C)c(NC(=O)c3cc(C(N)=O)nc4cc(F)c(Cl)cc34)c2C)CC1 [Example 415, 6-chloro-N^4-(1-{[1-(ethylsulfonyl)piperidin-4-yl]methyl}-3,5-dimethyl-1H-pyrazol-4-yl)-7-fluoroquinoline-2,4-dicarboxamide] | 18400 | 10 | –
CNC(=O)c1nc(Cn2nc(C(F)(F)F)c(NC(=O)c3cc(C(N)=O)nc4cc(F)c(Cl)cc34)c2C)no1 [Example 1558] | 51200 | 11.9 | –
CCc1noc(Cn2nc(C)c(NC(=O)c3cc(C(N)=O)nc4ccccc34)c2C)n1 [Example 1571] | 36100 | 64.1 | –
